2 substances from patent US10980876B2, “Conjugate vaccine targeting a disease-causing biological protein” (OSAKA UNIVERSITY, priority 2016, dated 2021) can be followed below.

Test [1] deals with B16F10 melanoma cells. The following applies: vaccination once a week 4 times before implantation of B16F10 (1×10^5 cells/mouse). The method, then: In addition, the adjuvant effect of the OSK-1 peptide on the antitumor effect of a WT1 peptide vaccine was also examined. For this test, the following four groups were prepared: a physiological saline group, a WT1 peptide (100 μg/mouse) plus poly(I:C) (InvivoGen; Poly(I:C) HMW VacciGrade, 50 μg/mouse) group, a WT1 peptide (100 μg/mouse) plus OSK-1 peptide (100 μg/mouse) group and an OSK-1-WT1 conjugate (350 μg/mouse) group (6 animals per group). The vaccines were administered to C57BL/6J mice once a week, 4 times in total. One week after the 4th administration, B16F10 melanoma cells (1×10^5 cells/mouse) were implanted into the dorsal skin. The vaccines were administered again one week after the cell implantation. The body weight and the diameter of the tumor were measured twice a week after the cell implantation. The diameter of the tumor was measured using a digital caliper, and the tumor volume was calculated by the formula: (major axis)×(minor axis)^2.

Test [2] deals with B16F10 melanoma cells. The following applies: 350 μg/mouse, vaccination started on day of implantation of B16F10 (3×10^5 cells/mouse). The method, then: The antitumor effect of the same OSK-1-WT1 conjugate as used in Reference Example 1 was assessed. For this test, the following four groups were prepared: a physiological saline group, a WT1 peptide (100 μg/mouse) plus poly(I:C) (InvivoGen; Poly (I:C) HMW VacciGrade, 50 μg/mouse) group, an OSK-1-WT1 conjugate (350 μg/mouse) group and a cisplatin (5 mg/kg) group (10 animals per group). B16F10 melanoma cells (3×10^5 cells/mouse) were implanted to C57BL/6J mice, and at the same day, the vaccines were intracutaneously administered into the dorsal skin. The day of cell implantation was designated as Day 0. The vaccines were administered on Day 7, Day 14, Day 21, Day 28 and Day 35. Twice a week after the cell implantation, the diameter of the tumor was measured using a digital caliper, and the tumor volume was calculated by the formula: (major axis)×(minor axis)^2.

For test [3], the system named is DPP4 epitope peptide.
Procedure: For this test, the following two groups were prepared: a physiological saline group and an OSK-1-DPP4 conjugate group (100 μg/mouse) (6 animals per group). Test samples were intracutaneously administered to Balb/c mice 3 times at 2-week intervals. Before the first administration and every 2 weeks until 8 weeks after the first administration, blood samples were collected, and the antibody titer against the DPP4 epitope peptide was measured by ELISA.
For this test, the following three groups were prepared: a KLH-DPP4 conjugate group (20 μg/mouse), an OSK-1-DPP4 conjugate group (100 μg/mouse) and an OSK-1-DPP4 conjugate (100 μg/mouse) plus Alum (Alhydrogel 2% (InvivoGen) 1 mg/mouse) group (2 animals per group). […] Before the first administration, every 2 weeks until 6 weeks after the first administration, and 12 weeks after the first administration, blood samples were collected, and the antibody titer against the DPP4 epitope peptide was measured by ELISA.
Six types of OSK-1-DPP4 conjugates containing different mouse DPP4 epitope peptides (SEQ ID NOs: 3, 5, 6, 8, 18 and 19) were intracutaneously administered to Balb/c mice at a dose of 100 μg per animal 3 times at 2-week intervals. Before the first administration and every 2 weeks after the first administration, blood samples were collected, and the antibody titer against each epitope peptide was measured by ELISA. […]
The test system of test [4] is DPP4 epitope peptide. The following applies: 4 administrations; blood at 11 weeks; FIG. 3.
Procedure: For this test, the following three groups were prepared: an OSK-1-DPP4 conjugate group (100 μg/mouse), a KLH-DPP4 conjugate (20 μg/mouse) plus Alum (Alhydrogel 2% (InvivoGen) 1 mg/mouse) group and a KLH-DPP4 conjugate (20 μg/mouse) plus OSK-1 (100 μg/mouse) group. Test samples were intracutaneously administered to Balb/c mice 3 times at 2-week intervals and at 9 weeks after the start of the administration, 4 times in total. At 11 weeks after the start of the administration, blood samples were collected, and the titer of each IgG subclass of antibodies against the DPP4 epitope peptide was measured by ELISA.
The subject of another test is DPP4. The following applies: OSK-1-DPP4-17 100 μg/mouse; KLH-DPP4-17 20 μg/mouse mixed with Alum 1 mg/mouse; 4 administrations; 21 weeks; FIG. 8.

Read-outs that look alike come from different tables or passages of the source.

With “Ac-ELKLIFLHRLKRLRKRLKRK-X-RMFPNAPYL (X=ε-Acp) [OSK-1-WT1 conjugate]”, the “inhibitory effect on tumor growth (tumor volume)” value is “the inhibitory effect on tumor growth and the survival benefit were observed” in the test with B16F10 melanoma cells [1] (FIG. 4); “modest, but the tumor volume was kept at lower levels than that of the physiological saline administration group (negative control) until Day 32” in the test on B16F10 melanoma cells [2] (FIG. 6). The “survival benefit (survival rate)” value was “the inhibitory effect on tumor growth and the survival benefit were observed” with B16F10 melanoma cells [1] (FIG. 5); “comparable to those in the WT1 peptide plus poly(I:C) group and the cisplatin group” in the test on B16F10 melanoma cells [2] (FIG. 7).
As to “Ac-ELKLIFLHRLKRLRKRLKRK-X-ENSTFESFG (X=ε-Acp) [OSK1-DPP4-17]”, the “antibody production against the DPP4 epitope peptide (antibody titer, ELISA)” value in the test on DPP4 epitope peptide [3] (100 μg/mouse intracutaneously 3 times at 2-week intervals, blood until 8 weeks, FIG. 1) is “antibody production against the DPP4 epitope peptide was observed”. Further, in the test with DPP4 epitope peptide [3] (OSK-1-DPP4 100 μg/mouse, KLH-DPP4 20 μg/mouse, Alum 1 mg/mouse, 3 times at 2-week intervals, up to 12 weeks, FIG. 2), the “antibody production-inducing capability (antibody titer against the DPP4 epitope peptide)” value was “comparable to that of the KLH-DPP4 conjugate”. The “titer of each IgG subclass of antibodies against the DPP4 epitope peptide” value with DPP4 epitope peptide [4] was “IgG2a and IgG2b, which are Th1-type IgG subclasses, were also produced at high levels in addition to IgG1”. Also, in the test on DPP4, the “IgE production against the target protein (serum IgE antibody against DPP4)” value is given as “no IgE production against the target protein was observed”.
